# Assay results taken from US5681832A, “Aroylaniline compounds, pharmaceutical compositions, and methods of using same to inhibit viral activity” (priority 1995, dated 1997).
# pEC50, pIC50: −log10 of the molar value. Where a name gives a salt, the structure may show the parent alone. Read-outs that look alike come from different tables or passages of the source.
# Tests used:
# HIV-1 = experiment: in vitro anti-HIV screening (NCI XTT soluble-formazan assay, protection of HIV-1-infected CEM T4 lymphocytes from cytolysis); type: cell-based; conditions: for pEC50 / inhibition at 200 µM / inhibition at 20 µM / inhibition at 2 µM / inhibition at 0.2 µM / inhibition at 63.2 µM / inhibition at 6.33 µM / inhibition at 0.634 µM / inhibition at 0.0635 µM: Human immunodeficiency virus 1, CCRF-CEM; for pEC50: 144 h, HIV-1-infected CEM cells, 6 days, approximate values, read-out: EC50 (Molar), 50% effective concentration; for inhibition at 200 µM / activity at 200 µM: 2.00 × 10^-4 Molar; for inhibition at 200 µM / inhibition at 20 µM / inhibition at 2 µM / inhibition at 0.2 µM / inhibition at 63.2 µM / inhibition at 6.33 µM / inhibition at 0.634 µM / inhibition at 0.0635 µM: read-out: Percent of Protection; for inhibition at 20 µM / activity at 20 µM: 2.00 × 10^-5 Molar; for inhibition at 2 µM / activity at 2 µM: 2.00 × 10^-6 Molar; for inhibition at 0.2 µM / activity at 0.2 µM: 2.00 × 10^-7 Molar; for inhibition at 6.33 µM / activity at 6.33 µM: 6.33 × 10^-6 Molar; for inhibition at 0.634 µM / activity at 0.634 µM: 6.34 × 10^-7 Molar; for inhibition at 0.0635 µM / activity at 0.0635 µM: 6.35 × 10^-8 Molar; for TI50 (IC/EC), therapeutic index: IC50/EC50; for Conclusion: NCI anti-HIV screen
# Description: The aroylaniline compounds of the present invention were subjected to in vitro screening to determine their anti-HIV activity.
# The National Cancer Institute's procedure for testing for agents active against Human Immunodeficiency Virus (HIV) (Weislow, O. W. et al., "New soluble-formazan assay for HIV-1 cytopathic effects: application to high-flux screening of synthetic and natural products for AIDS-antiviral activity," J. Natl Cancer Inst., 81, 577-586 (1989)) is designed to detect agents acting at any stage of the virus reproductive cycle. The assay includes the killing of T4 lymphocytes by HIV. Pursuant to the test, small amounts of HIV are added to cells, and a complete cycle of virus reproduction is necessary to obtain the required cell killing. Agents that interact with virions, cells, or virus gene-products to interfere with viral activities will protect cells from cytolysis. The system is thus designed to detect anti-HIV activity. However, compounds that are chemically labile or are rapidly metabolized in the culture conditions may not show activity in this screen. All tests are compared with at least one positive (e.g., AZT-treated) control done at the same time under identical conditions.
# (§1) 1. Candidate agent is dissolved in dimethyl sulfoxide (unless otherwise instructed) and then diluted 1:100 in cell culture medium before preparing serial half-log10 dilutions which are then to 96-well microfilter plates. T4 lymphocytes (CEM cell line) are added, and after a brief interval HIV-1 is added to all wells, resulting in a 1:200 final dilution […]. Uninfected cells with the compound serve as a toxicity control, and infected and uninfected cells without the compound serve as basic controls.
# (§2) 2. Cultures are incubated at 37° C. in a 5% carbon dioxide atmosphere for 6 days.
# (§3) 3. The tetrazolium salt, XTT, is added to all wells, and cultures are incubated to allow formazan color development by viable cells.
# (§4) 4. Individual wells are analyzed spectrophotometrically to quantitate formazan production, and in addition are viewed microscopically for detection of viable cells and confirmation of protective activity.
# (§5) 5. Drug-tested virus-infected cells are compared with drug-treated noninfected cells and with other appropriate controls (untreated infected and untreated noninfected cells, drug-containing wells without cells, etc.) on the same plate.
# 6. Data are reviewed in comparison with other tests done at the same time and a determination about activity is made.
# The aroylaniline compounds of the present invention were tested for anti-HIV activity according to the above procedure. FIGS. 1-6 represent test results of the aroylaniline compounds of Compounds 1, 3, 13, 14, 29 and 32.
# (§6) FIGS. 1 to 6 display a plot of the log10 of the concentrations (as μg/mL or molar as shown) of the aroylaniline compounds, Compounds 1, 3, 13, 14, 29 and 32, against the measured test values expressed as a percentage of the uninfected, untreated control values. The solid line depicts the percentage of surviving HIV-infected cells treated with sample (at the indicated concentration) relative to uninfected, untreated controls. Thus, the solid line expresses the anti-HIV activity of the compound. The dashed line depicts the percentage of surviving uninfected cells treated with the compound relative to the same uninfected, untreated controls. Thus, the dashed line expresses the growth inhibitory properties of the compound. The viral cytopathic effect […] is indicated by a dotted reference line. […] Survival values of this parameter less than 50% are considered acceptable in the current protocol. Approximate values for 50% effective concentration (EC50) have been calculated for each test and are set forth for these Compounds in Tables 2-7, respectively.
# [1] = test system: T4 lymphocytes (CEM cell line); experiment: toxicity control: survival of uninfected T4 lymphocytes (CEM cell line) treated with compound (growth inhibition); type: cell-based; conditions: Homo sapiens, CCRF-CEM; for pIC50: 144 h, read-out: IC50 (Molar); for activity at 200 µM / activity at 20 µM / activity at 2 µM / activity at 0.2 µM / activity at 63.2 µM / activity at 6.33 µM / activity at 0.634 µM / activity at 0.0635 µM: read-out: Percent of Control, Uninfected
# Description: as §1, §2, §3, §4, §5, §6
# [2] = Human immunodeficiency virus 1, CEM-T4, read-out: Percent of Control, Infected
# [3] = Human immunodeficiency virus 1, CEM-T4, 6.32 × 10^-5 Molar, read-out: Percent of Control, Infected
SMILES,pEC50 (HIV-1),inhibition at 200 µM (HIV-1) [%],inhibition at 20 µM (HIV-1) [%],inhibition at 2 µM (HIV-1) [%],inhibition at 0.2 µM (HIV-1) [%],inhibition at 63.2 µM (HIV-1; 6.32 × 10^-5 Molar) [%],inhibition at 6.33 µM (HIV-1) [%],inhibition at 0.634 µM (HIV-1) [%],inhibition at 0.0635 µM (HIV-1) [%],activity at 200 µM (HIV-1; [2]) [%],activity at 20 µM (HIV-1; [2]) [%],activity at 2 µM (HIV-1; [2]) [%],activity at 0.2 µM (HIV-1; [2]) [%],activity at 63.2 µM (HIV-1; [3]) [%],activity at 6.33 µM (HIV-1; [2]) [%],activity at 0.634 µM (HIV-1; [2]) [%],activity at 0.0635 µM (HIV-1; [2]) [%],"TI50 (IC/EC), therapeutic index (HIV-1)",Conclusion (HIV-1),pIC50 [1],further results
"O=C(Nc1ccc(C=Cc2ccc(NC(=O)c3cc(S(=O)(=O)O)c4cccnc4c3O)cc2S(=O)(=O)O)c(S(=O)(=O)O)c1)c1cc(S(=O)(=O)O)c2cccnc2c1O [Compound 1, 4,4'-di(8-hydroxy-5-sulfo-7-quinolinecarboxyamido)stilbene-2,2'disulfonic acid tetrasodium salt]",5.84,-26,107,68.6,5.09,85.6,121,3.41,-5.09,4.26,105,76.2,27.9,89.1,116,26.6,20.1,8.28 × 10^+1,CONFIRMED ACTIVE,,"pIC50 ([1]; uninfected CEM cells, 6 days): 3.92; activity at 200 µM ([1]; 2.00 × 10^-4 Molar): 6.47%; activity at 20 µM ([1]; 2.00 × 10^-5 Molar): 109%; activity at 2 µM ([1]; 2.00 × 10^-6 Molar): 106%; activity at 0.2 µM ([1]; 2.00 × 10^-7 Molar): 102%; activity at 63.2 µM ([1]; 6.32 × 10^-5 Molar): 104%; activity at 6.33 µM ([1]; 6.33 × 10^-6 Molar): 117%; activity at 0.634 µM ([1]; 6.34 × 10^-7 Molar): 105%; activity at 0.0635 µM ([1]; 6.35 × 10^-8 Molar): 97.6%"
"O=C([O-])c1c(O)ccc(O)c1C(=O)Nc1ccc(C=Cc2ccc(NC(=O)c3c(O)ccc(O)c3C(=O)[O-])cc2S(=O)(=O)O)c(S(=O)(=O)O)c1.[Na+].[Na+] [Compound 29, 4,4'-di(2-carboxy-3,6-dihydroxybenzamido)stilbene-2,2'-disulfonic acid disodium salt]",4.90,79.7,83.3,0.58,-1.09,92.7,2.47,-0.52,-3.31,81.1,84.5,7.54,5.99,93.2,9.3,6.52,3.92,> 1.61 × 10^+1,CONFIRMED ACTIVE,< 3.66,activity at 0.0635 µM [1]: 93.2%; activity at 0.2 µM [1]: 93.8%; activity at 0.634 µM [1]: 92.8%; activity at 2 µM [1]: 95.2%; activity at 6.33 µM [1]: 96.7%; activity at 20 µM [1]: 99%; activity at 63.2 µM [1]: 100%; activity at 200 µM [1]: 93%
O=C(O)CSCc1cc(C(=O)Nc2ccc(C=Cc3ccc(NC(=O)c4cc(CSCC(=O)O)c5cccnc5c4O)cc3S(=O)(=O)O)c(S(=O)(=O)O)c2)c(O)c2ncccc12 [Compound 14],6.09,27.6,16.6,147,17.6,6.56,151,25,16,29.8,19.1,146,20,9.36,149,27.2,18.5,2.05 × 10^+2,CONFIRMED ACTIVE,4.78,activity at 0.0635 µM [1]: 80.2%; activity at 0.2 µM [1]: 88.9%; activity at 0.634 µM [1]: 122%; activity at 2 µM [1]: 206%; activity at 6.33 µM [1]: 221%; activity at 20 µM [1]: 15.5%; activity at 63.2 µM [1]: 2.52%; activity at 200 µM [1]: -0.84%
"O=C(O)CCSCc1cc(C(=O)Nc2ccc(C=Cc3ccc(NC(=O)c4cc(CSCCC(=O)O)c5cccnc5c4O)cc3S(=O)(=O)O)c(S(=O)(=O)O)c2)c(O)c2ncccc12 [Compound 13, 4,4'-di[5-(2-carboxyethylthiomethyl)-8-hydroxy-7-quinolinecarboxyamido]stilbene-2,2'-disulfonic acid tetrasodium salt]",5.98,-28,67.5,84.4,-17.9,,134,24.6,15.6,2.7,75.3,88.1,10.4,,126,42.7,35.8,2.78 × 10^+1,CONFIRMED ACTIVE,4.54,inhibition at 63.2 µM (HIV-1): 29.4%; activity at 63.2 µM (HIV-1; [2]): 1.63%; activity at 0.0635 µM [1]: 86.4%; activity at 0.2 µM [1]: 90.5%; activity at 0.634 µM [1]: 92.2%; activity at 2 µM [1]: 111%; activity at 6.33 µM [1]: 118%; activity at 20 µM [1]: 73.7%; activity at 63.2 µM [1]: 0.37%; activity at 200 µM [1]: 2.05%
